Experimental data published in patent US20240109863A1, “2-PYRIDONE DERIVATIVE, AND PREPARATION METHOD THEREFOR AND PHARMACEUTICAL APPLICATION THEREOF” (KPC PHARMACEUTICALS, INC, priority 2020, published 2024).

How the values were obtained:
THRβ = target: T1, THRβ (Homo sapiens, UniProt P10828); test: THRβ binding assay (time-resolved FRET coactivator peptide recruitment); assay type: biochemical; settings: THRβ-LBD/RXRα, SRC2-2 coactivator peptide recruitment, 4 hours at room temperature
T1 construct: RXRα and THRβ-LBD Eu-anti-GST antibody with GST tag
T1 sequence (P10828 217-461 limits assumed, other chains not shown): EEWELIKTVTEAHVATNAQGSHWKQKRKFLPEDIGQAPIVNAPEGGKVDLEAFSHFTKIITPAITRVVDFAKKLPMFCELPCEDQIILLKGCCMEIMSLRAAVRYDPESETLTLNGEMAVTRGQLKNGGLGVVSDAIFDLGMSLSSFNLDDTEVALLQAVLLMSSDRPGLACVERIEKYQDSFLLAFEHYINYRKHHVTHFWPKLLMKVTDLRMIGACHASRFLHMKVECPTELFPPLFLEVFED
T1 sequence (P19793 whole entry partner, other chains not shown, the tested form may be a part): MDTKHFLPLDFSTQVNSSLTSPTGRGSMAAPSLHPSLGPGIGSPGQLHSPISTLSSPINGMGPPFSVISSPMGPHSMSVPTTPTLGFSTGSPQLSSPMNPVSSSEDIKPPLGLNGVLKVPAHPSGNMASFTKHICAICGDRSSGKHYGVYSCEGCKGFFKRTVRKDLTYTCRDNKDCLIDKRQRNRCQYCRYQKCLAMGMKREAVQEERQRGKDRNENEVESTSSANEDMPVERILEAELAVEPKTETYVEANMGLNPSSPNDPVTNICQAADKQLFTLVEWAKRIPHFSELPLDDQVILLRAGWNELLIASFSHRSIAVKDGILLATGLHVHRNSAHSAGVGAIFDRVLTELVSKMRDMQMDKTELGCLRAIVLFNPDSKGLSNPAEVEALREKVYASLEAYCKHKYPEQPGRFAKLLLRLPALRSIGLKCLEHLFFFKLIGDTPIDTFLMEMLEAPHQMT
Protocol: Experimental methods: In vitro analysis of the agonistic effect of compounds on THRβ was performed using time-resolved fluorescence resonance energy transfer coactivator peptide recruitment assays. The assay used biotin-SRC2-2 coactivator peptide, streptavidin-d2, RXRα and THRβ-LBD Eu-anti-GST antibody with GST tag. Eu-anti-GST antibody indirectly labeled THRβ-LBD by binding to the GST tag. Streptavidin-d2 indirectly labeled the SRC2-2 coactivator peptide by binding to the biotin tag. In the presence of RXRα, THRβ-LBD can form heterodimer THRβ-LBD/RXRα with it. […] According to the effect of different concentrations of the compound on the activity of THRβ, the agonistic ability of the compound can be evaluated.
The detailed procedure is as follows: • a. 100× reference compound or compound was prepared with DMSO, and equally diluted by 1:3. • b. 100× gradiently diluted reference compound or compound was diluted with 1× reaction buffer to 4×, which was then added to an assay plate. • c. A mixed solution of 4× THRβ-LBD and 4× RXRα was prepared with 1× reaction buffer, and added to the assay plate. • d. A mixed solution of 2× biotin-SRC2-2, 2× Eu-anti-GST, and 2× streptavidin-d2 was prepared with 1× reaction buffer, and added to the assay plate. • e. The assay plate was centrifuged at 1000 rpm for 1 min, and incubated at room temperature in the dark for 4 hours. • f.

THRα = target: T2, THRα (Homo sapiens, UniProt P10827); test: THRα binding assay (as the THRβ assay, THRβ replaced with THRα); assay type: biochemical; settings: for EC50: THRα in place of THRβ; for THRα/β selectivity (fold): ratio of THRα EC50 to THRβ EC50
T2 construct: GST
T2 sequence (P10827 1-410 isoform P10827-2, other chains not shown): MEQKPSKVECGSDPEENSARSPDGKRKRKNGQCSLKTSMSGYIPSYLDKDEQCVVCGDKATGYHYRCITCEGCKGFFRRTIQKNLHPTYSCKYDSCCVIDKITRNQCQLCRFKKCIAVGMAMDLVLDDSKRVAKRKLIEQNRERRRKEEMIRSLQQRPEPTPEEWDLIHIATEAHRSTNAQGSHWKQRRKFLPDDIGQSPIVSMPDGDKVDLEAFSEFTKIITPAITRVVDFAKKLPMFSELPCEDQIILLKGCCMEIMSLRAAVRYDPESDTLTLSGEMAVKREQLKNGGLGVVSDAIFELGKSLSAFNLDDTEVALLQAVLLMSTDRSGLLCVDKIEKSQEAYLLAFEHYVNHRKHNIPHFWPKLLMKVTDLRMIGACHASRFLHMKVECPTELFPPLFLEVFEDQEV
T2 sequence (P19793 whole entry partner, other chains not shown): as the sequence (P19793 whole entry partner, other chains not shown, the tested form may be a part) above

SMILES | EC50 (THRβ) | EC50 (THRα) | THRα/β selectivity (fold) (THRα)
O=c1[nH]c(=O)n(-c2cc(Cl)c(Oc3ccc(=O)n(-c4cccc(OC(F)(F)F)c4)c3)c(Cl)c2)nc1CF [Example 40, 2-(3,5-Dichloro-4-((6-oxo-1-(3-(trifluoromethoxy)phenyl)-1,6-dihydropyridin-3-yl)oxy)phenyl)-6-(fluoromethyl)-1,2,4-triazine-3,5(2H, 4H)-dione] | 4 nM | 95 nM | 23.7 fold
Cc1nn(-c2cc(Cl)c(Oc3ccc(=O)n(-c4ccccc4)c3)c(Cl)c2)c(=O)[nH]c1=O [Example 36, 2-(3,5-Dichloro-4-((6-oxo-1-phenyl-1,6-dihydropyridin-3-yl)oxy)phenyl)-6-methyl-1,2,4-triazine-3,5(2H, 4H)-dione] | 18 nM | 351 nM | 19.5 fold
Cc1ccc(-n2cc(Oc3c(Cl)cc(-n4nc(CF)c(=O)[nH]c4=O)cc3Cl)ccc2=O)cc1 [Example 41, 2-(3,5-dichloro-4-((6-oxo-1-(p-tolyl)-1,6-dihydropyridin-3-yl)oxy)phenyl)-6-(fluoromethyl)-1,2,4-triazine-3,5(2H, 4H)-dione] | 117 nM | 7630 nM | 53.7 fold
N#Cc1nn(-c2cc(Cl)c(Oc3ccc(=O)n(-c4cccc(C(F)(F)F)c4)c3)c(Cl)c2)c(=O)[nH]c1=O [Example 23, 2-(3,5-dichloro-4-((6-oxo-1-(3-(trifluoromethyl)phenyl)-1,6-dihydropyridin-3-yl)oxy)phenyl)-3,5-dioxo-2,3,4,5-tetrahydro-1,2,4-triazine-6-carbonitrile] | 26 nM | 2690 nM | 103.3 fold
O=c1[nH]c(=O)n(-c2cc(Cl)c(Oc3ccc(=O)n(-c4cccc(C(F)(F)F)c4)c3)c(Cl)c2)nc1CF [Example 39, 2-(3,5-Dichloro-4-((6-oxo-1-(3-(trifluoromethyl)phenyl)-1,6-dihydropyridin-3-yl)oxy)phenyl)-6-(fluoromethyl)-1,2,4-triazine-3,5(2H, 4H)-dione] | 5 nM | 117 nM | 23.3 fold
Cc1cc(C)cc(-n2cc(Oc3c(Cl)cc(-n4nc(CF)c(=O)[nH]c4=O)cc3Cl)ccc2=O)c1 [Example 42, 2-(3,5-Dichloro-4-((1-(3,5-dimethylphenyl)-6-oxo-1,6-dihydropyridin-3-yl)oxy)phenyl) -6-(fluoromethyl)-1,2,4-triazine-3,5(2H, 4H)-dione] | 9 nM | 696 nM | 72.5 fold
N#Cc1nn(-c2cc(Cl)c(Oc3ccc(=O)n(-c4cccc(OC(F)(F)F)c4)c3)c(Cl)c2)c(=O)[nH]c1=O [Example 24, 2-(3,5-Dichloro-4-((6-oxo-1-(3-(trifluoromethoxy)phenyl)-1,6-dihydropyridin-3-yl)oxy)phenyl)-3,5-dioxo-2,3,4,5-tetrahydro-1,2,4-triazine-6-carbonitrile] | 23 nM | 810 nM | 35.2 fold
O=c1[nH]c(=O)n(-c2cc(Cl)c(Oc3ccc(=O)n(-c4cccc(F)c4)c3)c(Cl)c2)nc1CF [Example 38, 2-(3,5-dichloro-4-((1-(3-fluorophenyl)-6-oxo-1,6-dihydropyridin-3-yl)oxy)phenyl)-6-(fluoromethyl)-1,2,4-triazine-3,5(2H, 4H)-dione] | 3 nM | 85 nM | 28.3 fold
